Test: MicroPET imaging and organ uptake quantification after tail vein injection in normal nude mice
Format: in vivo, mouse
Description: All animal studies were approved by the University of Southern California Institutional Animal Care and Use Committee. Female athymic nude mice (about 4-6 weeks old, with a body weight of 20-25 g) were obtained from Harlan Laboratories (Livermore, Calif.). MicroPET scans were performed using an Inveon microPET scanner (Siemens Medical Solutions, Malvern, Pa., USA). A normal nude mouse was anesthetized using 2% isoflurane and injected with 1.3-2.5 MBq of [^18F]-ClFMBP via tail vein. At 0.5, 1, and 2 h post injection, static emission scans were acquired for 10 min. Raw PET images were reconstructed using 2D ordered subset expectation maximization (OSEM) algorithms with scatter, random and attenuation correction.
The 2D projection of PET images at 2 h post-injection is shown.
Accumulation of [^18F]-ClFMBP in other mouse organs was minimal.

[1] = microPET quantification, 2 h post-injection, tail vein, normal nude mice

O=P(O)(O)C([18F])(Cl)P(=O)(O)O [[^18F]-ClFMBP, (chloro[^18F]-fluoromethylene)bisphosphonic acid]
visibility of joints and bones in microPET images (0.5, 1 and 2 h post-injection, normal nude mice): clearly visible with high contrast to contralateral background | uptake of radioactivity in the bladder (microPET images, normal nude mice): Predominant uptake | accumulation in other mouse organs (microPET quantification, 2 h post-injection): minimal | uptake in bones [1]: 2.72±0.05 % ID/g | uptake in joints [1]: 2.37±0.08 % ID/g | uptake in mouse kidneys [1]: 0.16±0.08 % ID/g | uptake in mouse liver [1]: 0.21±0.04 % ID/g | route of excretion (suggested by bladder uptake in microPET images): mainly through the renal system
